Laboratory results: patent US5532242A, “Piperazine derivatives as 5-HT receptors antagonists” (John Wyeth & Brother, Limited, priority 1992, dated 1996)

Tests used:
5-HT1A receptor [1] = biological target: T1, 5-HT1A receptor (Cavia porcellus, UniProt A0A286Y074); experiment: 5-HT1A receptor antagonism: antagonism of 5-carboxamidotryptamine in the guinea-pig ileum in vitro; conditions: read-out: pA2 (converted)
T1 construct: guinea-pig ileum in vitro; from tissue; host or cells: guinea-pig ileum
T1 sequence (A0A286Y074 1-421): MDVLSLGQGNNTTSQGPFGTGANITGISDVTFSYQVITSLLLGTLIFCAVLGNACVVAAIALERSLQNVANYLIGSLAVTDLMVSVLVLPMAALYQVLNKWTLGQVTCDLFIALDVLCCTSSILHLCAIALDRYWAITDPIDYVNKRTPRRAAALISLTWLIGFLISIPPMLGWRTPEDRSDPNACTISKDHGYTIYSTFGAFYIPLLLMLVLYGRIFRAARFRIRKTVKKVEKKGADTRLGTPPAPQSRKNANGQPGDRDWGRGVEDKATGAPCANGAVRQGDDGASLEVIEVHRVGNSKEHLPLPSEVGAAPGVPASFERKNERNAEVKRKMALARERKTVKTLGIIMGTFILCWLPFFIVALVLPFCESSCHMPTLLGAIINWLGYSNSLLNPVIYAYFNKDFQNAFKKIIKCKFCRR
Protocol: The compounds are tested for 5-HT1A receptor antagonism activity in a test involving the antagonism of 5-carboxamidotryptamine in the guinea-pig ileum in vitro (based upon the procedure of Fozard et al, Br J Pharmac, 1985, 86, 601P ).

5-HT1A receptor [2] = biological target: T2, 5-HT1A receptor (Rattus norvegicus, UniProt P19327); experiment: 5-HT1A receptor binding activity in rat hippocampal membrane homogenate
T2 construct: rat hippocampal membrane homogenate; from tissue; host or cells: rat hippocampal membrane homogenate
T2 sequence (P19327 1-422): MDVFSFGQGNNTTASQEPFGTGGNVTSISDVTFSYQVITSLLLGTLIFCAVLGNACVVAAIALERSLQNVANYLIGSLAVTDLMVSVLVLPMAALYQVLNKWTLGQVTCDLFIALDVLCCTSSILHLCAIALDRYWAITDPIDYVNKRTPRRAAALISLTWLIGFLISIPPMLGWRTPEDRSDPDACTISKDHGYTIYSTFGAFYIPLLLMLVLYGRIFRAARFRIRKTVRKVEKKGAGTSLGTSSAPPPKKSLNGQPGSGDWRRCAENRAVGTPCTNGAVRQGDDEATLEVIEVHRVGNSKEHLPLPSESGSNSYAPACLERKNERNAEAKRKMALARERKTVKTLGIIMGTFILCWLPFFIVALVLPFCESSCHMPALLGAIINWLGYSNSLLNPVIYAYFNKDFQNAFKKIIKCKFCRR
Protocol: The compounds of the invention were tested for 5-HT1A receptor binding activity in rat hippocampal membrane homogenate by the method of B S Alexander and M D Wood, J Pharm Pharmacol, 1988, 40, 888-891.

Structure (SMILES): COc1ccccc1N1CCN(CCN(C(=O)C2CCCCC2)c2ccccc2)CC1 [Example 2, N-(2-(4-(2-Methoxyphenyl)piperazin-1-yl)ethyl)-N-phenylcyclohexanecarboxamide]
- Kb (5-HT1A receptor [1]): 6.31 nM
- IC50 (5-HT1A receptor [2]): 4 nM
